Data: patent publication US20260306968A1, “METHOD FOR THE SEPARATION OF PHOSPHORUS STEREOISOMERS OF REMDESIVIR USING LIQUID-LIQUID CHROMATOGRAPHY” (ROTACHROM TECHNOLÓGIAI ZRT., priority 2023, published 2026)

Columns and labels:
[1] = Várnai et al., J. Pharm. Biomed. Anal., 2021; cited from earlier work
[2] = Dissolving ability of the preferred solvent systems for the remdesivir mixture; assay type: physicochemical
Procedure: The preferred solvent systems are characterized by a short settling time (less than 30 sec), a good dissolving ability (more than 20 mg racemic mixture of remdesivir can be dissolved in 1 mL of the solvent system), while from the toxicological aspect, their components can be categorized into class 3 and/or class 4 solvents classes.

CCC(CC)COC(=O)[C@H](C)N[P@](=O)(OC[C@H]1O[C@@](C#N)(c2ccc3c(N)ncnn23)[C@H](O)[C@@H]1O)Oc1ccccc1 [remdesivir]
ionization constant (basic pka) [1]: 3.56

CCC(CC)COC(=O)[C@H](C)NP(=O)(OC[C@H]1O[C@@](C#N)(c2ccc3c(N)ncnn23)[C@H](O)[C@@H]1O)Oc1ccccc1 (mixture of isomers) [racemic mixture of remdesivir]
amount that can be dissolved in 1 mL of the solvent system [2]: more than 20 mg
